Measurements from paper PMC8903076 (Journal of medicinal chemistry, 2021).

Molecular target: human GCGR (Homo sapiens, UniProt P47871)
Assay: CRE-luciferase reporter assay
Format: cell-based
Conditions: HEK293 cells stably expressing human GCGR

human GCGR, sequence (P47871 26-477): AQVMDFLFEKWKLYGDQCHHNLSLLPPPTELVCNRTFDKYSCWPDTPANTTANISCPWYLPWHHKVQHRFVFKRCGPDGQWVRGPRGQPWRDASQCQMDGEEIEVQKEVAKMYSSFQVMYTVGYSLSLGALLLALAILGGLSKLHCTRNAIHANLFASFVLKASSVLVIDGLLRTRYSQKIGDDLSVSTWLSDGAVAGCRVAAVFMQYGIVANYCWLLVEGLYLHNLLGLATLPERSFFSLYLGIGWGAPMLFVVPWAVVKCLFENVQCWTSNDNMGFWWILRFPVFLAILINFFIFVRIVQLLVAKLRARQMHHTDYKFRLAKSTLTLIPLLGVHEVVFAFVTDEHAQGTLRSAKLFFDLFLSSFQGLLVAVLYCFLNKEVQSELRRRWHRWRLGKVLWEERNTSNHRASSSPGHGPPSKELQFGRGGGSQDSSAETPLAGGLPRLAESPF

Substance: H-HAibQGTFTSDYSKYLDSRRAQDFVK^TailWLX^1T-NH2 [compound 18]
- activity in activating GCGR (in words): completely lost the activity
